Laboratory results taken from ChEMBL document CHEMBL6120945, “Peptidomimetic Analogues Act as Effective Inhibitors against SARS-CoV-2 by Blocking the Function of Cathepsin L” (J Med Chem, 2024).
Calls of active or inactive are those of the source. The rule behind the calls is not given here.

What was measured:
SARS-CoV-2 [1] = experiment: microbe, parasite or virus in culture; conditions: Severe acute respiratory syndrome coronavirus 2, WIV04, Vero C1008
Description: Antiviral activity against SARS-CoV-2 WIV04 infected in African green monkey Vero E6 pre-infected with cells for 1 hr followed by compound treatment and measured after 24 hrs by qRT-PCR analysis

[2] = Inhibition of human recombinant Cathepsin L-like protease using Z-FR-AMC as substrate at 10 uM preincubated for 30 mins followed by substrate addition and measured after 1.5 hrs by […]
[3] = biological target: Chymotrypsin (Homo sapiens) (UniProt Q99895+P17538+P40313+Q6GPI1); experiment: Inhibition of human Chymotrypsin at 10 uM relative to control; format: protein assay
[4] = test system: Severe acute respiratory syndrome coronavirus 2; experiment: Inhibition of recombinant SARS-Cov-2 Cathepsin L-like protease by LC-MS/MS analysis
Cathepsin L2 = biological target: T1, Cathepsin L2 (Homo sapiens, UniProt O60911); experiment: Binding affinity to Cathepsin V (unknown origin) assessed as inhibition constant by Morrison equation based analysis
T1 sequence (O60911 whole entry): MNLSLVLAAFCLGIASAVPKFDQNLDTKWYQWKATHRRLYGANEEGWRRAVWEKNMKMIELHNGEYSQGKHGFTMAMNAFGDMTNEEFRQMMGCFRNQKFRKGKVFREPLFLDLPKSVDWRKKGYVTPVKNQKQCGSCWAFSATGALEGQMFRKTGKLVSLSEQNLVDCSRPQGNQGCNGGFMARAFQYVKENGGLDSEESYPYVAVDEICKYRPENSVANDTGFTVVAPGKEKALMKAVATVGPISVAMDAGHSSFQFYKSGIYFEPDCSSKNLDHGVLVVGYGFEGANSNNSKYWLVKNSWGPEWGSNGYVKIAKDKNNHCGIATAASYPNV

[5] = biological target: Replicase polyprotein 1ab (Severe acute respiratory syndrome coronavirus 2) (UniProt P0DTD1); experiment: Inhibition of SARS-CoV2 PLpro using Z-RLRGG-AMC as substrate at 10 uM preincubated for 30 mins followed by substrate addition and measured after 1.5 hrs by fluorescence based analysis; conditions: time 2.0 hrs
Homo sapiens [6] = organism: Homo sapiens; experiment: Inhibition of human recombinant Cathepsin L-like protease using Z-FR-AMC as substrate at 10 uM preincubated for 30 mins followed by substrate addition and measured after 1.5 hrs by fluorescence based analysis; conditions: time 2.0 hrs
[7] = biological target: Transmembrane protease serine 2 (Homo sapiens) (UniProt O15393); experiment: Inhibition of human recombinant TMPRSS2 using Boc-QAR-AMC as substrate at 10 uM preincubated for 30 mins followed by substrate addition and measured after 1.5 hrs by fluorescence based analysis; conditions: time 2.0 hrs
SARS-CoV-2 [8] = format: functional, organism-based; conditions: Severe acute respiratory syndrome coronavirus 2; Vero E6; time 12.0 hrs
[9] = Inhibition of human recombinant Cathepsin L-like protease using Z-FR-AMC as substrate preincubated for 30 mins followed by substrate addition and measured after 1.5 hrs by fluorescence based analysis
[10] = biological target: T2, Cathepsin L2 (Homo sapiens) (UniProt O60911); experiment: Inhibition of Cathepsin V (unknown origin) at 10 uM relative to control
T2 sequence (whole entry): T1 sequence (O60911 whole entry)

[11] = biological target: Replicase polyprotein 1ab (Severe acute respiratory syndrome coronavirus 2, UniProt P0DTD1); experiment: Inhibition of recombinant SARS-CoV-2 3CLpro using MCA-AVLQSGFR-Lys(Dnp)-Lys-NH2 as substrate incubated for 1.5 hrs by fluorescence based analysis
Vero E6 [12] = experiment: Inhibition of Procathepsin L in african green monkey Vero E6 cells by LC-MS/MS analysis; format: cell-based; conditions: Chlorocebus aethiops
[13] = biological target: Replicase polyprotein 1ab (Severe acute respiratory syndrome coronavirus 2) (UniProt P0DTD1); experiment: Inhibition of recombinant SARS-CoV-2 3CLpro using MCA-AVLQSGFR-Lys(Dnp)-Lys-NH2 as substrate at 10 uM incubated for 1.5 hrs by fluorescence based analysis
Cathepsin B [14] = biological target: T3, Cathepsin B (Homo sapiens, UniProt P07858); experiment: Inhibition of Cathepsin B (unknown origin) at 10 uM relative to control
Cathepsin B [15] = biological target: T3, Cathepsin B; experiment: Binding affinity to Cathepsin B (unknown origin) assessed as inhibition constant by Morrison equation based analysis
[16] = Cytotoxicity against african green monkey Vero E6 cells assessed as cell viability incubated for 48 hrs by CCK-8 assay; format: toxicity, cell-based, Vero C1008; conditions: chlorocebus sabaeus
[17] = Binding affinity to human recombinant Cathepsin L-like protease using Z-FR-AMC as substrate assessed as inhibition constant preincubated for 30 mins followed by substrate addition and measured after 1 hr by Morrison equation based analysis
[18] = biological target: Transmembrane protease serine 2 (Homo sapiens) (UniProt O15393); experiment: Inhibition of human recombinant TMPRSS2 using Boc-QAR-AMC as substrate at 10 uM preincubated for 30 mins followed by substrate addition and measured after 1.5 hrs by fluorescence based analysis relative to control; conditions: time 2.0 hrs
Trypsin (Homo sapiens) = Trypsin (Homo sapiens) (UniProt P07477+P07478+P35030); experiment: Inhibition of human trypsin at 10 uM relative to control; format: protein assay
Vero E6 [19] = experiment: Binding affinity to Cathepsin L-like protease in african green monkey Vero E6 cells incubated for 2 hrs by mass spectrometric analysis; format: cell-based; conditions: Chlorocebus aethiops
[20] = Inhibition of recombinant Cathepsin L-like protease in african green monkey Vero E6 cells incubated for 2 hrs by pull down assay; format: cell-based, Chlorocebus aethiops
Vero E6 [21] = experiment: Binding affinity to Cathepsin L-like protease in african green monkey Vero E6 cells incubated for 2 hrs by Western blot analysis; format: cell-based; conditions: Chlorocebus aethiops
Homo sapiens [22] = organism: Homo sapiens; experiment: Inhibition of human recombinant Cathepsin L-like protease using Z-FR-AMC as substrate at 1 uM preincubated for 30 mins followed by substrate addition and measured after 1.5 hrs by fluorescence based analysis; conditions: time 2.0 hrs

Chain of Transmembrane protease serine 2 (Homo sapiens) (O15393 1-255 limits assumed): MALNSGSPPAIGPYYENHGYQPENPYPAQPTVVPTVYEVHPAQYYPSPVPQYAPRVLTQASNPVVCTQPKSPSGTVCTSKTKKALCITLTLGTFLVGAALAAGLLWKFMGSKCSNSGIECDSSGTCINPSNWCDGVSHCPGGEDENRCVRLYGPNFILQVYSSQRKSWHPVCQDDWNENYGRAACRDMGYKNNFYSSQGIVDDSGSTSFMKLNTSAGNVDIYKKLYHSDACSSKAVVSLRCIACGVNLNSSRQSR
Chain of Transmembrane protease serine 2 (Homo sapiens) (O15393 256-492 limits assumed): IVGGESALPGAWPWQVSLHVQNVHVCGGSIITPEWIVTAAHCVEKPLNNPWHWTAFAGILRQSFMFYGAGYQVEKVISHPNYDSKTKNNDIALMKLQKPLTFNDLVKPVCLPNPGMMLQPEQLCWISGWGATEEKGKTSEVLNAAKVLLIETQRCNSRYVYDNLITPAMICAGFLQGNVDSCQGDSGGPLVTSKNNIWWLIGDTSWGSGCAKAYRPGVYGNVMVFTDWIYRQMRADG

Row | SMILES | EC50 (SARS-CoV-2 [1]) [nM] | IC50 [2] [nM] | IC50 [9] [nM] | IC50 [11] [nM] | CC50 at 48 h [16] [nM] | other results
1 | O=C(N[C@@H](Cc1ccc(F)cc1)C(=O)N[C@@H](Cc1ccccc1)C(=O)CCl)c1ccc2[nH]ccc2c1 | 410 | 0.56 | – | – | – | –
2 | CC(C)C[C@H](NC(=O)/C=C/c1ccccc1)C(=O)N[C@H](C=O)Cc1ccccc1 | 310 | – | 22.6 | > 10000 | > 100000 | inhibition [3]: inactive; inhibition [4]: Active; Ki (Cathepsin L2): 2.25 nM; inhibition [5]: inactive; inhibition (Homo sapiens [6]): Active; inhibition [7]: inactive; Activity (SARS-CoV-2 [8]): Active; inhibition [10]: inactive; inhibition (Vero E6 [12]): Active; inhibition [13]: inactive; inhibition (Cathepsin B [14]): inactive; Ki (Cathepsin B [15]): 40.1 nM; Ki [17]: 1.31 nM; inhibition [18]: 100%; inhibition (Trypsin (Homo sapiens)): inactive
3 | CC(C)C[C@H](NC(=O)/C=C/c1ccccc1)C(=O)N[C@H](C=O)C[C@@H]1CCNC1=O | – | – | – | – | > 100000 | –
4 | C#CCCCCOc1ccc(/C=C/C(=O)N[C@@H](CC(C)C)C(=O)N[C@H](C=O)Cc2ccccc2)cc1 | – | – | 40.8 | – | – | Activity (Vero E6 [19]): Active; EC50 [20]: 6210 nM; Activity (Vero E6 [21]): Active
5 | O=C(N[C@@H](Cc1ccccc1)C(=O)N[C@@H](Cc1ccccc1)C(=O)CCl)c1ccc2[nH]ccc2c1 | – | 0.8 | – | – | – | –
6 | O=C(N[C@@H](Cc1cccc(F)c1)C(=O)N[C@@H](Cc1ccccc1)C(=O)CCl)c1cccc2ccccc12 | – | 1.34 | – | – | – | –
7 | COC(=O)[C@H](Cc1ccccc1)NC(=O)[C@H](CC(C)C)NC(=O)/C=C/c1ccccc1 | > 100000 | – | – | > 10000 | > 100000 | –
8 | O=C(N[C@@H](Cc1ccc(F)cc1)C(=O)N[C@@H](Cc1ccccc1)C(=O)CCl)c1cccc2ccccc12 | 260 | 0.27 | – | – | – | inhibition [3]: inactive; Activity (SARS-CoV-2 [8]): Active; inhibition [10]: inactive; inhibition (Cathepsin B [14]): inactive; inhibition (Trypsin (Homo sapiens)): inactive
9 | O=C(N[C@@H](Cc1ccccc1)C(=O)N[C@@H](Cc1ccccc1)C(=O)CCl)c1cccc2ccccc12 | 400 | 0.41 | – | – | – | –
10 | CC(C)C[C@@H](NC(=O)/C=C/c1ccccc1)C(=O)N[C@H](C=O)Cc1ccccc1 | – | – | > 1000 | > 10000 | – | inhibition (Homo sapiens [22]): inactive
11 | O=C(N[C@@H](Cc1cccc(F)c1)C(=O)N[C@@H](Cc1ccccc1)C(=O)CCl)c1ccc2[nH]ccc2c1 | 1750 | 0.72 | – | – | – | –
12 | C#CCCCCOc1ccc(/C=C/C(=O)N[C@@H](CC(C)C)C(=O)N[C@@H](Cc2ccccc2)C(=O)OC)cc1 | > 100000 | – | – | > 10000 | > 100000 | –
13 | CC(C)C[C@H](NC(=O)/C=C/c1ccccc1)C(=O)N[C@H](C=O)CC1CCCCC1 | – | – | 47.8 | > 10000 | – | –
14 | O=C[C@H](Cc1ccccc1)NC(=O)[C@H](Cc1ccccc1)NC(=O)/C=C/c1ccccc1 | – | – | 6.65 | > 10000 | – | –
15 | CC(C)C[C@H](NC(=O)/C=C/c1ccccc1)C(=O)N[C@H](C=O)C[C@@H]1CCCNC1=O | 1510 | – | – | – | > 100000 | –
